These results are taken from patent publication US8211901B2, “Naphthamide derivatives as multi-target protein kinase inhibitors and histone deacetylase inhibitors” (Shenzhen Chipscreen Biosciences Ltd., priority 2009, dated 2012).

Molecules are shown by their SMILES.

Common to all, as to format: in vivo, nu/nu mice
The test system of series [1] is human SSMC7721 liver cancer xenograft. Kind of series: Antitumor activity of compound 31, SSMC7721 xenograft (Example 53). As to the method: (§1) The antitumor activity of compound 31 was measured in human SSMC7721 liver cancer xenograft model. The female nu/nu mice of 18˜20 g were fed by normal diet for 3 days. Then the cultured SSMC7721 human liver cancer cells were implanted into the armpit of 50 mice. […] One group was treated with vehicle. One group was treated with sutent, the positive control drug. […] Each group was dosed orally once a day for 30 days. Tumor volumes as established by caliper measurements were recorded twice per week, along with body weights. At the end of study, the mice were killed, and tumors were weighed. The tumor growth inhibition of each group was calculated using the formula {[(the average tumor weight of vehicle group)−(the average tumor weight of drug group)]/(the average tumor weight of vehicle group)}×100%.

A short description of series [2]: Body weight in A549 xenograft study (Example 51). As to the method:
The antitumor activity of compound 31 was measured in human A549 lung cancer xenograft model. […] Then the cultured A549 human lung cancer cells were implanted into the armpit of 50 mice. When tumors had reached approximately 6 mm in diameter, the mice were divided into 6 groups randomly. Each group has 8 mice. One group was treated with vehicle. One group was treated with sutent, the positive control drug. […] Each group was dosed orally once a day for 24 days. Tumor volumes as established by caliper measurements were recorded twice per week, along with body weights. At the end of study, the mice were killed, and tumors were weighed. The tumor growth inhibition of each group was calculated using the formula {[(the average tumor weight of vehicle group)-(the average tumor weight of drug group)]/(the average tumor weight of vehicle group)}×100%.

A short description of series [3]: Body weight in HCT-8 xenograft study (Example 52). The method, then: The antitumor activity of compound 31 was measured in human HCT-8 colon cancer xenograft model. The female nu/nu mice of 18˜20 g were fed by normal diet for 3 days. Then the cultured HCT-8 human colon cancer cells were implanted into the armpit of 50 mice. When tumors had reached approximately 100 mm^3, the mice were divided into 6 groups randomly. Each group has 8 mice. One group was treated with vehicle. One group was treated with sutent, the positive control drug. […] Each group was dosed orally once a day for 20 days. Tumor volumes as established by caliper measurements were recorded twice per week, along with body weights. At the end of study, the mice were killed, and tumors were weighed. The tumor growth inhibition of each group was calculated using the formula {[(the average tumor weight of vehicle group)−(the average tumor weight of drug group)]/(the average tumor weight of vehicle group)}×100%.

The nature of series [4]: Body weight in SSMC7721 xenograft study (Example 53). As to the method:
as §1

A short description of series [5]: Body weight in HCT-8 xenograft study (Example 54). As to the method:
The antitumor activity of compound 33 and compound 34 were measured in human HCT-8 colon cancer xenograft model. The female nu/nu mice of 18˜20 g were fed by normal diet for 3 days. Then the cultured HCT-8 human colon cancer cells were implanted into the armpit of 50 mice. When tumors had reached approximately 100 mm^3, the mice were divided into 6 groups randomly. Each group has 8 mice. One group was treated with vehicle. One group was treated with sutent, the positive control drug. Two groups were treated with compound 33. The other two groups were treated with compound 34. Each group was dosed orally once a day for 20 days. Tumor volumes as established by caliper measurements were recorded twice per week, along with body weights. At the end of study, the mice were killed, and tumors were weighed. The tumor growth inhibition of each group was calculated using the formula {[(the average tumor weight of vehicle group)−(the average tumor weight of drug group)]/(the average tumor weight of vehicle group)}×100%.

The nature of series [6]: Body weight in SSMC7721 xenograft study (Example 56). As to the method:
The antitumor activity of compound 33 and compound 37 were measured in human SSMC7721 liver cancer xenograft model. The female nu/nu mice of 18˜20 g were fed by normal diet for 3 days. Then the cultured SSMC7721 human liver cancer cells were implanted into the armpit of 50 mice. […] Each group has 8 mice. One group was treated with vehicle. One group was treated with sutent, the positive control drug. Two groups were treated with compound 33. The other two groups were treated with compound 37. Each group was dosed orally once a day for 30 days. Tumor volumes as established by caliper measurements were recorded twice per week, along with body weights. At the end of study, the mice were killed, and tumors were weighed. The tumor growth inhibition of each group was calculated using the formula {[(the average tumor weight of vehicle group)−(the average tumor weight of drug group)]/(the average tumor weight of vehicle group)}×100%.

The mark [7] stands for this setting: 2.5 mg/kg orally once a day for 30 days.
The mark [8] stands for this setting: 5 mg/kg orally once a day for 30 days.
Setting [9] is: 10 mg/kg orally once a day for 30 days.
Where [10] appears, read: 20 mg/kg orally once a day for 30 days.
Where [11] appears, read: 5 mg/kg orally once a day for 24 days.
Setting [12] is: 10 mg/kg orally once a day for 24 days.
[13] abbreviates: 20 mg/kg orally once a day for 24 days.
Where [14] appears, read: 40 mg/kg orally once a day for 24 days.
Where [15] appears, read: 2.5 mg/kg orally once a day for 20 days.
The mark [16] stands for this setting: 5 mg/kg orally once a day for 20 days.
[17] abbreviates: 10 mg/kg orally once a day for 20 days.
Where [18] appears, read: 20 mg/kg orally once a day for 20 days.
Setting [19] is: 30 mg/kg orally once a day for 20 days.
Where [20] appears, read: 60 mg/kg orally once a day for 20 days.
Where [21] appears, read: 30 mg/kg orally once a day for 30 days.
Where [22] appears, read: 60 mg/kg orally once a day for 30 days.

On to `COc1ccc2c(Oc3ccc4c(C(=O)Nc5ccccc5N)cccc4c3)ccnc2c1` [Example 31, N-(2-aminophenyl)-6-(7-methoxyquinolin-4-yloxy)-1-naphthamide], for which the “TGI (%) Tumor growth inhibition” value in series [1] (setting [7]) worked out at 51.7%; in series [1] (setting [8]), 65.4%; in series [1] (setting [9]), 79.2%; in series [1] (setting [10]), 84.4%. Besides, the “Tumor weight” value in series [1] (setting [7]) is on record as 1.63 ± 0.70 g; in series [1] (setting [8]), 1.16 ± 0.55 g; in series [1] (setting [9]) it was 0.70 ± 0.45 g; in series [1] (setting [10]), 0.53 ± 0.28 g. Further, the “Body weight (g) end” value is given as 24.6 ± 1.3 g in series [2] (setting [11]); 25.1 ± 1.3 g in series [2] (setting [12]); 24.2 ± 0.7 g in series [2] (setting [13]); 22.6 ± 2.4 g in series [2] (setting [14]); 24.5 ± 1.1 g in series [3] (setting [15]); 24.8 ± 1.5 g in series [3] (setting [16]). Also, the “Body weight (g) end” value in series [3] (setting [17]) came to 23.7 ± 0.8 g; in series [3] (setting [18]) it was 22.5 ± 1.6 g; in series [4] (setting [7]), 23.2 ± 2.1 g; in series [4] (setting [8]), 24.8 ± 1.5 g; in series [4] (setting [9]) it was 23.6 ± 1.5 g; in series [4] (setting [10]), 21.0 ± 2.2 g. In addition, the “Body weight (g) start” value was 21.1 ± 0.6 g in series [2] (setting [11]); 19.9 ± 1.3 g in series [2] (setting [12]); 20.6 ± 1.1 g in series [2] (setting [13]); 20.0 ± 0.9 g in series [2] (setting [14]); 20.3 ± 0.8 g in series [3] (setting [15]); 21.6 ± 1.4 g in series [3] (setting [16]). The “Body weight (g) start” value in series [3] (setting [17]) was 20.7 ± 1.1 g; in series [3] (setting [18]), 20.5 ± 1.3 g; in series [4] (setting [7]) it was 20.1 ± 0.9 g; in series [4] (setting [8]), 20.8 ± 1.2 g; in series [4] (setting [9]), 20.4 ± 1.6 g; in series [4] (setting [10]), 20.2 ± 1.7 g.
For `COc1ccc2c(Oc3ccc4c(C(=O)NCc5ccc(C(=O)Nc6ccccc6N)cc5)cccc4c3)ccnc2c1` [Example 33, N-(4-((2-aminophenyl)carbamoyl)benzyl)-6-(7-methoxyquinolin-4-yloxy)-1-naphthamide], the “Body weight (g) end” value in series [5] (setting [19]) is 21.1 ± 2.2 g; in series [5] (setting [20]), 21.4 ± 1.5 g; in series [6] (setting [21]), 24.0 ± 1.7 g; in series [6] (setting [22]), 25.4 ± 2.8 g. Moreover, the “Body weight (g) start” value came to 19.0 ± 1.3 g in series [5] (setting [19]), 19.4 ± 0.8 g in series [5] (setting [20]), 20.8 ± 0.5 g in series [6] (setting [21]) and 21.4 ± 1.3 g in series [6] (setting [22]).
